Data reported in patent US9510598B2, “Nitrogen-containing heterocyclic compounds for plant disease control” (BAYER CROPSCIENCE AG, priority 2012, dated 2016).
Where two headings read alike, the source gives them in different places.

Assays:
Botrytis cinerea = experiment: In vivo preventive test on Botrytis cinerea (grey mould); conditions: 500 ppm; gherkin plants sprayed 24 hours before contamination; grading 4-5 days after contamination vs control plants
How it was run: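 Gherkin plants ("Vert petit de Paris") sprayed with compound at Z11 cotyledon stage, then inoculated 24 h later with B. cinerea spores (50 000/ml) in PDB/fructose/NH4NO3/KH2PO4 nutrient solution. Incubated at 17 °C, 80% RH; % efficacy versus solvent-treated controls graded 4–5 days after contamination.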

[1] = assay type: physicochemical
Alternaria brassicae = experiment: In vivo preventive test on Alternaria brassicae (leaf spot on radish); conditions: 500 ppm; radish plants sprayed 24 hours before contamination; grading 5 days after contamination vs control plants
Procedure: Radish plants (“Pernod Clair” variety), sown in starter cups on a 50/50 peat soil-pozzolana substrate and grown at 17° C., are treated at the 2-leaf stage by spraying with the active ingredient prepared as described above. Plants, used as controls, are treated with the mixture of acetone/tween/DMSO/water not containing the active material. After 24 hours, the plants are contaminated by spraying the leaves with an aqueous suspension of Alternaria brassicae spores (50 000 spores per ml). The spores are collected from a 15-day-old culture. […] Grading (% of efficacy) is carried out 5 days after the contamination, in comparison with the control plants.

Septoria tritici = experiment: In vivo preventive test on Septoria tritici (leaf spot on wheat); conditions: 500 ppm; wheat plants sprayed 24 hours before contamination; grading 21 to 28 days after contamination vs control plants
How it was run: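 Scipion wheat at 1-leaf stage sprayed with compound, controls receiving acetone/tween/DMSO/water vehicle; 24 h later leaves inoculated with Septoria tritici spores (500 000 spores per ml). Efficacy (%) graded versus control plants 21 to 28 days after contamination.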

Phytophthora infestans = assay type: in vivo; conditions: 500 ppm; tomato plants sprayed 24 hours before contamination; grading 5 days after contamination vs control plants
Sphaerotheca fuliginea = experiment: In vivo preventive test on Sphaerotheca fuliginea (powdery mildew on cucurbits); conditions: 500 ppm; gherkin plants sprayed 24 hours before contamination; grading 12 days after contamination vs control plants
How it was run: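 Preventive spray of gherkin plants at Z11 cotyledon stage, grown at 24° C; inoculation 24 hours later with Sphaerotheca fuliginea spores (100 000 spores per ml). Efficacy graded 12 days post-inoculation as % versus solvent-treated control plants.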

[2] = method [a]: HPLC/LC-MS on reversed phase at pH 2.7, 0.1% formic acid in water / acetonitrile, linear gradient 10% to 95% acetonitrile
[3] = method [a]: HPLC/LC-MS on reversed phase at pH 2.7, 0.1% formic acid in water / acetonitrile, gradient 10% to 95% acetonitrile
[4] = HPLC on reversed phase columns, method [a]: pH 2.7, 0.1% formic acid in water / acetonitrile, linear gradient 10% to 95% acetonitrile

C#Cc1cnc2ccc(C3=NOC(C)(C(=O)NCc4ccco4)C3)cc2c1 (stereo not drawn) [compound 164]
% of efficacy (protection) (Botrytis cinerea): 71%
log P [1, 2]: 2.51^[a]
% of efficacy (protection) (Alternaria brassicae): 88%

CCCOc1cnc2ccc(C3=NOC(C)(C(=O)NC(C)C)C3)cc2c1 (stereo not drawn) [compound 412]
log P [1, 3]: 2.16[a]
% of efficacy (protection) (Alternaria brassicae): 70%

CC(C)NC(=O)C1(CC2CC2)CC(c2ccc3ncc(Br)cc3c2)=NO1 (stereo not drawn) [compound 422]
log P [1, 3]: 3.60[a]
% of efficacy (protection) (Alternaria brassicae): 72%

C#Cc1cnc2ccc(C3=NOC(C)(C(=O)NCC4OCCc5ccccc54)C3)cc2c1 (single isomer, unassigned) [compound 245]
log P [1, 4]: 2.92^[a]
% of efficacy (protection) (Alternaria brassicae): 94%
% of efficacy (protection) (Septoria tritici): 71%

C#Cc1cnc2ccc(C3=NOC(C)(C(=O)NCc4ccc5ccoc5c4)C3)cc2c1 (stereo not drawn) [compound 242]
% of efficacy (protection) (Botrytis cinerea): 86%
log P [1, 4]: 3^[a]
% of efficacy (protection) (Alternaria brassicae): 94%
% of efficacy (protection) (Septoria tritici): 86%

CC1(C(=O)NCC2(c3ccc(F)cc3)CC2)CC(c2ccc3ncc(Br)cc3c2)=NO1 (stereo not drawn) [compound 221]
log P [1, 2]: 3.81^[a]
% of efficacy (protection) (Alternaria brassicae): 98%

CC1(C(=O)NCc2ccco2)CC(c2ccc3ncc(Br)cc3c2)=NO1 (stereo not drawn) [compound 161]
log P [1, 2]: 2.82^[a]
% of efficacy (protection) (Alternaria brassicae): 75%

C#Cc1cnc2ccc(C3=NOC(C)(C(=O)NCc4ccc(OC(F)(F)F)cc4)C3)cc2c1 (stereo not drawn) [compound 173]
log P [1, 2]: 3.53^[a]
% of efficacy (protection) (Alternaria brassicae): 88%

C#Cc1cnc2ccc(C3=NOC(C)(C(=O)NCc4ccc5c(c4)OCCO5)C3)cc2c1 (stereo not drawn) [compound 208]
log P [1, 2]: 2.71^[a]
% of efficacy (protection) (Alternaria brassicae): 88%

C#CC1(C(=O)NC(C)C)CC(c2ccc3ncc(Br)cc3c2)=NO1 (stereo not drawn) [compound 402]
% of efficacy (protection) (Botrytis cinerea): 99%
log P [1, 3]: 2.92[a]
% of efficacy (protection) (Alternaria brassicae): 71%
% of efficacy (protection) (Septoria tritici): 100%

C#Cc1cc2cc(C3=NOC(C)(C(=O)NCc4cn(CC)nc4C)C3)ccc2nc1Cl (stereo not drawn) [compound 411]
log P [1, 3]: 2.59[a]
% of efficacy (protection) (Alternaria brassicae): 80%

CC1(C(=O)NCc2ccnc(N3CCOCC3)c2)CC(c2ccc3ncc(Br)cc3c2)=NO1 (stereo not drawn) [compound 98]
log P [1, 2]: 1.51^[a]
% of efficacy (protection) (Alternaria brassicae): 70%

CC1(C(=O)NCc2ccc(Oc3ccccc3)cc2)CC(c2ccc3ncc(Br)cc3c2)=NO1 (stereo not drawn) [compound 84]
log P [1, 2]: 4.24^[a]
% of efficacy (protection) (Alternaria brassicae): 80%

CCOCCCNC(=O)C1(CC2CC2)CC(c2ccc3ncc(Br)cc3c2)=NO1 (racemic) [compound 426]
log P [1, 3]: 3.55[a]
% of efficacy (protection) (Alternaria brassicae): 78%

CC1(C(=O)NCc2cccc(OC(F)(F)F)c2)CC(c2ccc3ncc(Br)cc3c2)=NO1 (stereo not drawn) [compound 188]
log P [1, 2]: 3.89^[a]
% of efficacy (protection) (Alternaria brassicae): 88%

C#Cc1cnc2ccc(C3=NOC(C)(C(=O)NCC4CCCCC4)C3)cc2c1 (stereo not drawn) [compound 246]
log P [1, 4]: 3.55^[a]
% of efficacy (protection) (Alternaria brassicae): 75%

C#Cc1cnc2ccc(C3=NOC(C)(C(=O)NCc4ccccc4Oc4ccccc4)C3)cc2c1 (stereo not drawn) [compound 187]
log P [1, 2]: 3.89^[a]
% of efficacy (protection) (Alternaria brassicae): 88%

Cc1cnc(CNC(=O)C2(C)CC(c3ccc4ncc(Br)cc4c3)=NO2)cn1 (stereo not drawn) [compound 85]
log P [1, 2]: 2.2^[a]
% of efficacy (protection) (Alternaria brassicae): 96%
% of efficacy (protection) (Septoria tritici): 75%

C=CC1(C(=O)NCCCOCC)CC(c2ccc3ncc(I)cc3c2)=NO1 (stereo not drawn) [compound 730]
% of efficacy (protection) (Botrytis cinerea): 85%
log P ([1]; HPLC on reversed phase columns, method [a]: pH 2.7, 0.1% formic acid in water and acetonitrile, linear gradient 10% to 95% acetonitrile): 3.19[a]
% of efficacy (protection) (Septoria tritici): 100%
% of efficacy (protection) (Phytophthora infestans): 100%
% of efficacy (protection) (Sphaerotheca fuliginea): 98%

C#Cc1cnc2ccc(C3=NOC(C)(C(=O)NC4CCOCC4C)C3)cc2c1 (stereo not drawn) [compound 470]
% of efficacy (protection) (Botrytis cinerea): 100%
log P [1, 3]: 2.21[a]
% of efficacy (protection) (Septoria tritici): 97%
% of efficacy (protection) (Phytophthora infestans): 98%
% of efficacy (protection) (Sphaerotheca fuliginea): 75%

C#Cc1cnc2ccc(C3=NOC(CC)(C(=O)NCc4cn(CCC)nc4C)C3)cc2c1 (racemic) [compound 445]
% of efficacy (protection) (Botrytis cinerea): 93%
log P [1, 3]: 2.64[a]
% of efficacy (protection) (Septoria tritici): 94%
% of efficacy (protection) (Phytophthora infestans): 100%
% of efficacy (protection) (Sphaerotheca fuliginea): 94%

C#Cc1cnc2ccc(C3=NOC(C)(C(=O)NCc4ccc5c(c4)OCC5)C3)cc2c1 (stereo not drawn) [compound 220]
% of efficacy (protection) (Botrytis cinerea): 100%
log P [1, 2]: 2.82^[a]
% of efficacy (protection) (Alternaria brassicae): 88%

CCOC1(C(=O)NC(C)C)CC(c2ccc3ncc(Br)cc3c2)=NO1 (stereo not drawn) [compound 415]
log P [1, 3]: 2.98[a]
% of efficacy (protection) (Alternaria brassicae): 80%

CCCn1cc(CNC(=O)C2(CC)CC(c3ccc4ncc(Br)cc4c3)=NO2)c(C)n1 (stereo not drawn) [compound 500]
% of efficacy (protection) (Botrytis cinerea): 85%
log P [1, 3]: 2.91[a]
% of efficacy (protection) (Septoria tritici): 86%
% of efficacy (protection) (Phytophthora infestans): 94%
% of efficacy (protection) (Sphaerotheca fuliginea): 100%

C#Cc1cnc2c(C)cc(C3=NOC(C)(C(=O)NCc4cn(CCC)nc4C)C3)cc2c1 (stereo not drawn) [compound 533]
% of efficacy (protection) (Botrytis cinerea): 100%
log P [1, 4]: 2.90[a]
% of efficacy (protection) (Septoria tritici): 100%
% of efficacy (protection) (Phytophthora infestans): 90%
% of efficacy (protection) (Sphaerotheca fuliginea): 100%

C#Cc1cnc2ccc(C3=NOC(C)(C(=O)NCc4cnn(C(C)C)c4)C3)cc2c1 (stereo not drawn) [compound 197]
% of efficacy (protection) (Botrytis cinerea): 100%
log P [1, 2]: 2.23^[a]
% of efficacy (protection) (Septoria tritici): 86%
% of efficacy (protection) (Phytophthora infestans): 97%
% of efficacy (protection) (Sphaerotheca fuliginea): 98%

C#Cc1cnc2ccc(C3=NOC(C)(C(=O)NCc4ccncc4)C3)cc2c1 (stereo not drawn) [compound 99]
% of efficacy (protection) (Botrytis cinerea): 100%
log P [1, 2]: 1.2^[a]
% of efficacy (protection) (Alternaria brassicae): 70%

C#Cc1cnc2ccc(C3=NOC(C)(C(=O)NCc4csc5ccc(Cl)cc45)C3)cc2c1 (stereo not drawn) [compound 244]
log P [1, 4]: 3.74^[a]
% of efficacy (protection) (Alternaria brassicae): 81%

CC1(C(=O)NCc2ccc(Cl)cc2Cl)CC(c2ccc3ncc(Br)cc3c2)=NO1 (stereo not drawn) [compound 95]
log P [1, 2]: 4.16^[a]
% of efficacy (protection) (Alternaria brassicae): 70%

C#Cc1cnc2ccc(C3=NOC(C)(C(=O)NC(C)(C)/C=N/OC)C3)cc2c1 (stereo not drawn) [compound 463]
% of efficacy (protection) (Botrytis cinerea): 100%
log P [1, 3]: 2.92[a]
% of efficacy (protection) (Septoria tritici): 100%
% of efficacy (protection) (Phytophthora infestans): 100%
% of efficacy (protection) (Sphaerotheca fuliginea): 97%

CC(NC(=O)C1(C)CC(c2ccc3ncc(Br)cc3c2)=NO1)C1CCOC1 (stereo not drawn) [compound 291]
% of efficacy (protection) (Botrytis cinerea): 88%
log P [1, 4]: 2.46[a]
% of efficacy (protection) (Septoria tritici): 100%
% of efficacy (protection) (Phytophthora infestans): 87%
% of efficacy (protection) (Sphaerotheca fuliginea): 80%

C#Cc1cnc2ccc(C3=NOC(C)(C(=O)NCc4ccc(C)o4)C3)cc2c1 (stereo not drawn) [compound 163]
log P [1, 2]: 2.8^[a]
% of efficacy (protection) (Alternaria brassicae): 88%

CC(C)NC(=O)C12OCCCC1C(c1ccc3ncc(Br)cc3c1)=NO2 (stereo not drawn) [compound 273]
log P [1, 4]: 2.90[a]
% of efficacy (protection) (Alternaria brassicae): 75%

C#Cc1cnc2ccc(C3=NOC(C)(C(=O)NCc4cnn(CC)c4CC)C3)cc2c1 (stereo not drawn) [compound 464]
% of efficacy (protection) (Botrytis cinerea): 98%
log P [1, 3]: 2.37[a]
% of efficacy (protection) (Septoria tritici): 100%
% of efficacy (protection) (Phytophthora infestans): 100%
% of efficacy (protection) (Sphaerotheca fuliginea): 100%

O=C(NC1CC1)C1(CC2CC2)CC(c2ccc3ncc(Br)cc3c2)=NO1 (racemic) [compound 427]
log P [1, 3]: 3.20[a]
% of efficacy (protection) (Alternaria brassicae): 83%

C#Cc1cnc2ccc(C3=NOC(OC)(C(=O)NC(C)(C)c4nc(C)cs4)C3)cc2c1 (stereo not drawn) [compound 514]
% of efficacy (protection) (Botrytis cinerea): 100%
log P [1, 4]: 2.90[a]
% of efficacy (protection) (Septoria tritici): 98%
% of efficacy (protection) (Phytophthora infestans): 97%
% of efficacy (protection) (Sphaerotheca fuliginea): 75%

CC1(C(=O)NCc2csc3ccc(Cl)cc23)CC(c2ccc3ncc(Br)cc3c2)=NO1 (stereo not drawn) [compound 241]
log P [1, 4]: 4.21^[a]
% of efficacy (protection) (Alternaria brassicae): 81%

C#Cc1cnc2ccc(C3=NOC(C)(C(=O)NCc4ccc5[nH]c(C)cc5c4)C3)cc2c1 (stereo not drawn) [compound 226]
log P [1, 2]: 2.84^[a]
% of efficacy (protection) (Alternaria brassicae): 81%

Cc1nc(CNC(=O)C2(C)CC(c3ccc4ncc(Br)cc4c3)=NO2)no1 (stereo not drawn) [compound 171]
log P [1, 2]: 2.23^[a]
% of efficacy (protection) (Alternaria brassicae): 75%
% of efficacy (protection) (Septoria tritici): 71%

C#Cc1cnc2ccc(C3=NOC(C)(C(=O)NC(C)(C)C#CCOC)C3)cc2c1 (stereo not drawn) [compound 465]
% of efficacy (protection) (Botrytis cinerea): 88%
log P [1, 3]: 2.82[a]
% of efficacy (protection) (Septoria tritici): 97%
% of efficacy (protection) (Phytophthora infestans): 100%
% of efficacy (protection) (Sphaerotheca fuliginea): 81%
